How the values were obtained:
[1] = test system: M. catarrhalis (ATCC 25238); assay: MIC, NCCLS broth microdilution; type: cell-based, Moraxella (now Branhamella) catarrhalis; settings: H = M. catarrhalis (ATCC 25238)
Excerpt: (§1) In vitro biological activity data were collected for a variety of microorganisms, including Staphylococcus aureus (ATCC 27660, a methicillin resistant strain (MRSA); ATCC 13709, a methicillin sensitive strain (MSSA)), Enterococcus faecalis (ATCC 29212), Bacillus cereus (ATCC 11778), Streptococcus pneumoniae (ATCC 49619), Candida albicans (ATCC 38247), Escherichia coli (ATCC 25922), and Moraxella (now Branhamella) catarrhalis (ATCC 25238).
(§2) The minimal inhibition concentration (MIC) of these compounds was determined using the National Committee for Clinical Laboratory Standards (NCCLS) broth microdilution assay in microtiter plates, as set forth in: (1) the guidelines of the National Committee for Clinical Laboratory Standards (NCCLS) Document M7-A4 (NCCLS, 1997); (2) the guidelines of the National Committee for Clinical Laboratory Standards (NCCLS) Document M11-A4 (NCCLS, 1997); and (3) the guidelines and reference method of the National Committee for Clinical Laboratory Standards (NCCLS) Document M27-T (NCCLS, 1995). For antifungal assays, the method recommended in Murray, P R., 1995 Manual of Clinical Microbiology (ASM Press, Washington, DC.), was employed.

S. aureus ATCC 27660 = assay: MIC, NCCLS broth microdilution; type: cell-based, Staphylococcus aureus; settings: B = S. aureus ATCC 27660 (MRSA)
Excerpt: as §1, §2

S. aureus ATCC 13709 = assay: MIC, NCCLS broth microdilution; type: cell-based, Staphylococcus aureus; settings: A = S. aureus ATCC 13709 (MSSA)
Excerpt: as §1, §2

E. coli ATCC 25922 = assay: MIC, NCCLS broth microdilution; type: cell-based, Escherichia coli; settings: G = E. coli ATCC 25922
Excerpt: as §1, §2

S. pneumoniae ATCC 49619 = assay: MIC, NCCLS broth microdilution; type: cell-based, Streptococcus pneumoniae; settings: E = S. pneumoniae ATCC 49619
Excerpt: as §1, §2

C. albicans ATCC 38247 = assay: MIC, antifungal assay; type: cell-based, Candida albicans; settings: F = C. albicans ATCC 38247
Excerpt: as §1, §2

B. cereus ATCC 11778 = assay: MIC, NCCLS broth microdilution; type: cell-based, Bacillus cereus; settings: D = B. cereus ATCC 11778
Excerpt: as §1, §2

E. faecalis ATCC 29212 = assay: MIC, NCCLS broth microdilution; type: cell-based, Enterococcus faecalis; settings: C = E. faecalis ATCC 29212
Excerpt: as §1, §2

Row | SMILES | Minimum Inhibitory Concentration (MIC) [1] | Minimum Inhibitory Concentration (MIC) (S. aureus ATCC 27660) | Minimum Inhibitory Concentration (MIC) (S. aureus ATCC 13709) | Minimum Inhibitory Concentration (MIC) (E. coli ATCC 25922) | Minimum Inhibitory Concentration (MIC) (S. pneumoniae ATCC 49619) | Minimum Inhibitory Concentration (MIC) (C. albicans ATCC 38247) | Minimum Inhibitory Concentration (MIC) (B. cereus ATCC 11778) | Minimum Inhibitory Concentration (MIC) (E. faecalis ATCC 29212)
1 | Cn1cc(NC(=O)c2cccc(F)n2)cc1C(=O)Nc1ccc(C(=O)Nc2cn(C)c(C(=O)NCCN3CCC(O)CC3)n2)cc1 [Compound A-2] | + (12 ≦ MIC ≦ 32 μg/mL) | +++ (MIC ≦ 4 μg/mL) | +++ (MIC ≦ 4 μg/mL) | >32 µg/mL | +++ (MIC ≦ 4 μg/mL) | >32 µg/mL | +++ (MIC ≦ 4 μg/mL) | +++ (MIC ≦ 4 μg/mL)
2 | CCN(CC)CCNC(=O)c1nc(NC(=O)c2ccc(NC(=O)c3cc(NC(=O)c4cc5ccccc5cn4)cn3C)cc2)cn1C [Compound A-25] | +++ (MIC ≦ 4 μg/mL) | +++ (MIC ≦ 4 μg/mL) | +++ (MIC ≦ 4 μg/mL) | >32 µg/mL | +++ (MIC ≦ 4 μg/mL) | >32 µg/mL | +++ (MIC ≦ 4 μg/mL) | +++ (MIC ≦ 4 μg/mL)
3 | Cn1cc(NC(=O)c2cc3ccccc3cn2)cc1C(=O)Nc1ccc(C(=O)Nc2cn(C)c(C(=O)NCCN3CCC(OC(=O)CCN(CCO)CCO)CC3)n2)cc1 [Compound A-57] | +++ (MIC ≦ 4 μg/mL) | +++ (MIC ≦ 4 μg/mL) | +++ (MIC ≦ 4 μg/mL) | ++ (4 < MIC < 12 μg/mL) | +++ (MIC ≦ 4 μg/mL) | >32 µg/mL | +++ (MIC ≦ 4 μg/mL) | +++ (MIC ≦ 4 μg/mL)
4 | Cn1cc(NC(=O)c2cc3ccccc3cn2)cc1C(=O)Nc1ccc(C(=O)Nc2cn(C)c(C(=O)NCCN3CCCCCC3)n2)cc1 [Compound A-24] | +++ (MIC ≦ 4 μg/mL) | +++ (MIC ≦ 4 μg/mL) | +++ (MIC ≦ 4 μg/mL) | >32 µg/mL | +++ (MIC ≦ 4 μg/mL) | ++ (4 < MIC < 12 μg/mL) | +++ (MIC ≦ 4 μg/mL) | +++ (MIC ≦ 4 μg/mL)
5 | Cn1cc(NC(=O)c2cc3ccccc3cn2)cc1C(=O)Nc1ccc(C(=O)Nc2cn(C)c(C(=O)NCCNCCCO)n2)cc1 [Compound A-43] | >32 µg/mL | +++ (MIC ≦ 4 μg/mL) | +++ (MIC ≦ 4 μg/mL) | >32 µg/mL | +++ (MIC ≦ 4 μg/mL) | >32 µg/mL | +++ (MIC ≦ 4 μg/mL) | +++ (MIC ≦ 4 μg/mL)
6 | Cn1cc(NC(=O)c2cc3ccccc3cn2)cc1C(=O)Nc1ccc(C(=O)Nc2cn(C)c(C(=O)NCCN3CCC(F)CC3)n2)cc1 [Compound A-41] | +++ (MIC ≦ 4 μg/mL) | +++ (MIC ≦ 4 μg/mL) | +++ (MIC ≦ 4 μg/mL) | >32 µg/mL | +++ (MIC ≦ 4 μg/mL) | >32 µg/mL | +++ (MIC ≦ 4 μg/mL) | +++ (MIC ≦ 4 μg/mL)
7 | Cn1cc(NC(=O)c2cc3ccccc3cn2)cc1C(=O)Nc1ccc(C(=O)Nc2cn(C)c(C(=O)NCCNc3ccccn3)n2)cc1 [Compound A-23] | +++ (MIC ≦ 4 μg/mL) | +++ (MIC ≦ 4 μg/mL) | +++ (MIC ≦ 4 μg/mL) | >32 µg/mL | +++ (MIC ≦ 4 μg/mL) | >32 µg/mL | +++ (MIC ≦ 4 μg/mL) | +++ (MIC ≦ 4 μg/mL)
8 | Cn1cc(NC(=O)c2cc3c([N+](=O)[O-])cccc3cn2)cc1C(=O)Nc1ccc(C(=O)Nc2cn(C)c(C(=O)NCCN3CCC(O)CC3)n2)cc1 [Compound A-7] | + (12 ≦ MIC ≦ 32 μg/mL) | +++ (MIC ≦ 4 μg/mL) | +++ (MIC ≦ 4 μg/mL) | >32 µg/mL | +++ (MIC ≦ 4 μg/mL) | >32 µg/mL | +++ (MIC ≦ 4 μg/mL) | +++ (MIC ≦ 4 μg/mL)

Further lines, results first:

Row | Minimum Inhibitory Concentration (MIC) [1] | Minimum Inhibitory Concentration (MIC) (S. aureus ATCC 27660) | Minimum Inhibitory Concentration (MIC) (S. aureus ATCC 13709) | Minimum Inhibitory Concentration (MIC) (E. coli ATCC 25922) | Minimum Inhibitory Concentration (MIC) (S. pneumoniae ATCC 49619) | Minimum Inhibitory Concentration (MIC) (C. albicans ATCC 38247) | Minimum Inhibitory Concentration (MIC) (B. cereus ATCC 11778) | Minimum Inhibitory Concentration (MIC) (E. faecalis ATCC 29212) | SMILES
9 | +++ (MIC ≦ 4 μg/mL) | +++ (MIC ≦ 4 μg/mL) | +++ (MIC ≦ 4 μg/mL) | +++ (MIC ≦ 4 μg/mL) | +++ (MIC ≦ 4 μg/mL) | >32 µg/mL | +++ (MIC ≦ 4 μg/mL) | +++ (MIC ≦ 4 μg/mL) | Cn1cc(NC(=O)c2cc3ccccc3cn2)cc1C(=O)Nc1ccc(C(=O)Nc2cn(C)c(C(=O)NCCN3CCC(O)C3)n2)cc1 (stereo not shown) [Compound A-70]
10 | >32 µg/mL | +++ (MIC ≦ 4 μg/mL) | +++ (MIC ≦ 4 μg/mL) | >32 µg/mL | +++ (MIC ≦ 4 μg/mL) | >32 µg/mL | +++ (MIC ≦ 4 μg/mL) | +++ (MIC ≦ 4 μg/mL) | Cn1cc(NC(=O)c2cc3ccccc3cn2)cc1C(=O)Nc1ccc(C(=O)Nc2cn(C)c(C(=O)NCCN3CCN(C(=O)C4OC(O)C(O)C(O)C4O)CC3)n2)cc1 (stereo not shown) [Compound A-75]
11 | +++ (MIC ≦ 4 μg/mL) | +++ (MIC ≦ 4 μg/mL) | +++ (MIC ≦ 4 μg/mL) | >32 µg/mL | +++ (MIC ≦ 4 μg/mL) | >32 µg/mL | +++ (MIC ≦ 4 μg/mL) | +++ (MIC ≦ 4 μg/mL) | Cn1cc(NC(=O)c2cc3ccccc3cn2)cc1C(=O)Nc1ccc(C(=O)Nc2cn(C)c(C(=O)NCCN3CCC(OC(=O)CCN4CCOCC4)CC3)n2)cc1 [Compound A-59]
12 | +++ (MIC ≦ 4 μg/mL) | +++ (MIC ≦ 4 μg/mL) | +++ (MIC ≦ 4 μg/mL) | >32 µg/mL | +++ (MIC ≦ 4 μg/mL) | >32 µg/mL | +++ (MIC ≦ 4 μg/mL) | +++ (MIC ≦ 4 μg/mL) | Cn1cc(NC(=O)c2cc3ccccc3cn2)cc1C(=O)Nc1ccc(C(=O)Nc2cn(C)c(C(=O)NCCN3CCN(CCOC(=O)CNC(=O)C4OC(O)C(O)C(O)C4O)CC3)n2)cc1 (stereo not shown) [Compound A-76]
13 | + (12 ≦ MIC ≦ 32 μg/mL) | ++ (4 < MIC < 12 μg/mL) | +++ (MIC ≦ 4 μg/mL) | >32 µg/mL | +++ (MIC ≦ 4 μg/mL) | >32 µg/mL | +++ (MIC ≦ 4 μg/mL) | +++ (MIC ≦ 4 μg/mL) | CC(S)CN1CCN(CCNC(=O)c2nc(NC(=O)c3ccc(NC(=O)c4cc(NC(=O)c5cc6ccccc6cn5)cn4C)cc3)cn2C)CC1 (stereo not shown) [Compound A-77]
14 | +++ (MIC ≦ 4 μg/mL) | +++ (MIC ≦ 4 μg/mL) | +++ (MIC ≦ 4 μg/mL) | + (12 ≦ MIC ≦ 32 μg/mL) | +++ (MIC ≦ 4 μg/mL) | >32 µg/mL | +++ (MIC ≦ 4 μg/mL) | +++ (MIC ≦ 4 μg/mL) | CCC(O)CN1CCN(CCNC(=O)c2nc(NC(=O)c3ccc(NC(=O)c4cc(NC(=O)c5cc6ccccc6cn5)cn4C)cc3)cn2C)CC1 (stereo not shown) [Compound A-78]

— US7642245B2, “Antibacterial compounds having a (pyrrole carboxamide)-(benzamide)-(imidazole carboxamide) motif” (Oscient Pharmaceuticals Corporation, priority 2002, dated 2010)
